According to ChEMBL document CHEMBL4177738, “Synthesis and evaluation of a class of 1,4,7-triazacyclononane derivatives as iron depletion antitumor agents” (Bioorg Med Chem Lett, 2018):
The source made the active and inactive calls. The rule behind the calls is not given here.

Tests used:
HepG2 [1] = assay: Antiproliferative activity against human HepG2 cells assessed as reduction in cell viability at 50 uM incubated for 72 hrs by MTT assay; assay type: functional; details: HepG2, 72 h
HepG2 [2] = assay: Antiproliferative activity against human HepG2 cells assessed as reduction in cell viability incubated for 72 hrs by MTT assay; assay type: functional, cell-based; details: HepG2, 72 h
L02 [3] = assay: Antiproliferative activity against human LO2 cells assessed as reduction in cell viability at 50 uM incubated for 72 hrs by MTT assay; assay type: cell-based; details: l02, 72 h
HepG2 [4] = assay: Antiproliferative activity against human HepG2 cells assessed as reduction in cell viability at 50 uM incubated for 72 hrs in presence of 50 uM iron chloride by MTT assay; assay type: functional, cell-based
L02 [5] = assay: Increase in cell viability in human LO2 cells at 50 uM incubated for 72 hrs by MTT assay relative to untreated control; assay type: functional

| SMILES | IC50 (HepG2 [2]) | inhibition at 50 µM (HepG2 [1]) | Activity (L02 [3]) | inhibition (HepG2 [4]) | fold change (FC) (L02 [5]) |
| --- | --- | --- | --- | --- | --- |
| O=C(O)CN(CCN1CCN(CP(=O)(O)O)CCN(CP(=O)(O)O)CC1)CC(=O)O | 3.8 µM | – | Non-Toxic | – | 3 - 8 |
| O=C(O)CN1CCN(CCCn2cccc(O)c2=O)CCN(CC(=O)O)CC1 | 4.5 µM | 80% | Non-Toxic | inactive | 3 - 8 |
| O=C(O)CN(CCCc1ccc([N+](=O)[O-])cc1)CCN1CCN(CC(=O)O)CCN(CC(=O)O)CC1 | 1.4 µM | – | Non-Toxic | – | 3 - 8 |
| O=C(O)CN1CCN(CCn2cccc(O)c2=O)CCN(CC(=O)O)CC1 | 6.9 µM | 80% | Non-Toxic | inactive | 3 - 8 |
| Nc1ccc(CCCN(CCN2CCN(CC(=O)O)CCN(CC(=O)O)CC2)CC(=O)O)cc1 | 1.5 µM | – | Non-Toxic | – | 3 - 8 |

Second part, led by results:

| IC50 (HepG2 [2]) | SMILES | inhibition at 50 µM (HepG2 [1]) | Activity (L02 [3]) | inhibition (HepG2 [4]) | fold change (FC) (L02 [5]) |
| --- | --- | --- | --- | --- | --- |
| 38.3 µM | O=C(O)CN(CCN(CC(=O)O)CC(=O)O)CCN(CC(=O)O)CC(=O)O [PENTETIC ACID] | 60% | Non-Toxic | inactive | – |
| 8.2 µM | O=C(O)CN1CCN(CC(=O)O)CCN(CC(Cc2ccc([N+](=O)[O-])cc2)N(CC(=O)O)CC(=O)O)CC1 (stereo not given) | – | Non-Toxic | – | 3 - 8 |
| > 100 µM | CC(=O)N(O)CCCCCNC(=O)CCC(=O)N(O)CCCCCNC(=O)CCC(=O)N(O)CCCCCN [DEFEROXAMINE] | 40% | Non-Toxic | inactive | – |
